Assay results taken from ChEMBL document CHEMBL1201862, “PubChem BioAssay data set” (2004).
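Test compounds were applied to cells in 96-well plates for 48 hours at 5 doses. Here, GI50 denotes the concentration required for 50% inhibition of growth.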 Activity calls are given as the source filed them. Cut-off read from the data, not from the text of the source: active = GI50 up to about 1.1 µM and inactive = higher.

How the values were obtained:
Test in all cases: NCI tumour cell line growth inhibition, 48 h
RPMI-8226 = system: RPMI-8226
COLO 205 = system: COLO 205
EKVX = system: EKVX
A549 = system: A549
NCI-H23 = system: NCI-H23
MOLT-4 = system: MOLT-4
SK-MEL-5 = system: SK-MEL-5
SW-620 = system: SW-620
SR = system: SR
HL-60 = system: HL-60
NCI-H522 = system: NCI-H522
UACC-257 = system: UACC-257
CAKI-1 = system: CAKI-1
LOX IMVI = system: LOX IMVI
OVCAR-5 = system: OVCAR-5

Measured: GI50

O=C1c2ccccc2N2OC3(N4CCCC4)CCCC3C12c1ccccc1 (stereo not given)
inactive: RPMI-8226 62.8 µM | COLO 205 > 100 µM | EKVX > 100 µM | A549 68.5 µM | NCI-H23 > 100 µM | MOLT-4 49.9 µM | SK-MEL-5 61.4 µM | SW-620 > 100 µM | SR 59.4 µM | HL-60 43.3 µM | NCI-H522 > 100 µM | UACC-257 71.6 µM

C=C(C)CCOC(c1ccccc1)(c1ccccc1)c1ccccc1
inactive: RPMI-8226 33.9 µM | COLO 205 55.1 µM | CAKI-1 70.6 µM | A549 38.9 µM | NCI-H23 27.8 µM | LOX IMVI 25.2 µM | MOLT-4 51.3 µM | OVCAR-5 > 100 µM | SK-MEL-5 27.4 µM | SW-620 82.4 µM | HL-60 31.5 µM | NCI-H522 18.9 µM | UACC-257 25.4 µM

CC1CC2C(=O)N(c3ccccc3)C(=O)C2c2[nH]c3ccccc3c21 (stereo not given)
inactive: RPMI-8226 37.6 µM | COLO 205 73.3 µM | EKVX > 100 µM | A549 94 µM | NCI-H23 58.9 µM | LOX IMVI 45.5 µM | MOLT-4 28.4 µM | SK-MEL-5 > 100 µM | SW-620 > 100 µM | SR 29.2 µM | HL-60 31.8 µM

Sc1nnc(-c2cccnc2)[nH]1
inactive: RPMI-8226 > 100 µM | COLO 205 > 100 µM | A549 > 100 µM | NCI-H23 > 100 µM | LOX IMVI > 100 µM | OVCAR-5 > 100 µM | SK-MEL-5 > 100 µM | SW-620 > 100 µM | SR > 100 µM | HL-60 > 100 µM | UACC-257 > 100 µM

Cn1c(=O)c2c(ncn2CCCCn2ccnc2[N+](=O)[O-])n(C)c1=O
inactive: RPMI-8226 > 100 µM | COLO 205 > 100 µM | EKVX > 100 µM | A549 > 100 µM | NCI-H23 > 100 µM | LOX IMVI > 100 µM | MOLT-4 > 100 µM | OVCAR-5 > 100 µM | SK-MEL-5 > 100 µM | SW-620 > 100 µM | SR > 100 µM | HL-60 > 100 µM | NCI-H522 > 100 µM

O=C(NCCCCCCCCNC(=O)c1cnc2ccccc2n1)c1cnc2ccccc2n1
inactive: RPMI-8226 > 100 µM | COLO 205 > 100 µM | CAKI-1 > 100 µM | EKVX > 100 µM | A549 > 100 µM | NCI-H23 > 100 µM | LOX IMVI > 100 µM | MOLT-4 > 100 µM | OVCAR-5 > 100 µM | SK-MEL-5 > 100 µM | SW-620 > 100 µM | SR > 100 µM | HL-60 > 100 µM | UACC-257 > 100 µM

CCCCCCCCCCCCCCCCCC[N+](C)(C)Cc1ccc(C[N+](C)(C)CCCCCCCCCCCCCCCCCC)cc1
inactive: RPMI-8226 15.6 µM | COLO 205 34.8 µM | CAKI-1 21.2 µM | EKVX 18.9 µM | A549 13.6 µM | NCI-H23 4.09 µM | LOX IMVI 13.6 µM | MOLT-4 21 µM | OVCAR-5 32.9 µM | SK-MEL-5 22.8 µM | SW-620 18.2 µM | SR 2.39 µM | NCI-H522 2.97 µM | UACC-257 15.9 µM

COC(=O)c1c(CC#N)cccc1CC#N
inactive: RPMI-8226 > 100 µM | COLO 205 > 100 µM | CAKI-1 > 100 µM | EKVX > 100 µM | A549 > 100 µM | NCI-H23 > 100 µM | LOX IMVI > 100 µM | MOLT-4 > 100 µM | OVCAR-5 > 100 µM | SW-620 > 100 µM | SR > 100 µM | HL-60 > 100 µM | NCI-H522 > 100 µM | UACC-257 > 100 µM

Cc1nc2ccccc2c(=O)n1-c1ccccc1F
inactive: COLO 205 > 100 µM | CAKI-1 > 100 µM | EKVX > 100 µM | A549 > 100 µM | NCI-H23 > 100 µM | LOX IMVI > 100 µM | MOLT-4 > 100 µM | OVCAR-5 > 100 µM | SK-MEL-5 > 100 µM | SW-620 > 100 µM | HL-60 > 100 µM | NCI-H522 > 100 µM | UACC-257 > 100 µM

C=CC(=O)NCCSCCCOC1(C(=O)O)CC(O)C(NC(C)=O)C(C(O)C(O)CO)O1 (stereo not given)
inactive: RPMI-8226 > 100 µM | COLO 205 > 100 µM | A549 > 100 µM | NCI-H23 > 100 µM | LOX IMVI > 100 µM | MOLT-4 > 100 µM | OVCAR-5 > 100 µM | SW-620 > 100 µM | SR > 100 µM | HL-60 > 100 µM | NCI-H522 > 100 µM | UACC-257 > 100 µM

Cc1ccc(S(=O)(=O)N2CCC3(C(/C=C/c4ccccc4)=Nc4ccccc43)C2c2ccccc2)cc1 (stereo not given)
inactive: RPMI-8226 > 100 µM | COLO 205 > 100 µM | CAKI-1 > 100 µM | EKVX > 100 µM | A549 > 100 µM | NCI-H23 > 100 µM | LOX IMVI > 100 µM | OVCAR-5 > 100 µM | SK-MEL-5 > 100 µM | SW-620 1.52 µM | SR > 100 µM | HL-60 > 100 µM | NCI-H522 > 100 µM | UACC-257 > 100 µM

C=C(CO)CC(O)c1cc(OC)ccc1OC (stereo not given)
inactive: RPMI-8226 > 100 µM | COLO 205 > 100 µM | CAKI-1 > 100 µM | EKVX > 100 µM | A549 > 100 µM | LOX IMVI > 100 µM | MOLT-4 > 100 µM | OVCAR-5 > 100 µM | SK-MEL-5 > 100 µM | SW-620 > 100 µM | HL-60 > 100 µM | NCI-H522 > 100 µM | UACC-257 > 100 µM

O=C1NC2(C=Cc3c(ccc4ccccc34)O2)Oc2ccccc21 (stereo not given)
inactive: RPMI-8226 6.08 µM | COLO 205 14.8 µM | EKVX 21.1 µM | A549 18.7 µM | NCI-H23 26.7 µM | LOX IMVI 12.9 µM | MOLT-4 7.8 µM | OVCAR-5 36.6 µM | SK-MEL-5 13.1 µM | SW-620 15 µM | SR 5.15 µM | HL-60 4.81 µM | NCI-H522 11.4 µM

CC(=O)OC[C@]1(O)CC[C@@]23CC1C[C@@H]2CCC1C(C)(C)CCC[C@@]13C (stereo not given in full)
inactive: RPMI-8226 9.23 µM | COLO 205 17.8 µM | CAKI-1 18.2 µM | A549 15.8 µM | NCI-H23 12.8 µM | LOX IMVI 11.1 µM | MOLT-4 1.77 µM | OVCAR-5 11.3 µM | SK-MEL-5 15 µM | SW-620 10.7 µM | SR 8.89 µM | HL-60 4.95 µM | NCI-H522 2.64 µM | UACC-257 15.8 µM

CCc1ccccc1NC(=O)C(=O)C(C(=O)c1ccc(OC)cc1)c1ccc(OC)cc1 (stereo not given)
inactive: RPMI-8226 > 100 µM | COLO 205 > 100 µM | CAKI-1 > 100 µM | EKVX > 100 µM | A549 > 100 µM | NCI-H23 > 100 µM | LOX IMVI > 100 µM | MOLT-4 94.2 µM | OVCAR-5 > 100 µM | SK-MEL-5 > 100 µM | SW-620 > 100 µM | HL-60 > 100 µM | NCI-H522 > 100 µM | UACC-257 > 100 µM

Cc1nc(Nc2ccc(Cl)cc2)sc1C(=O)NNC(=S)NN
inactive: RPMI-8226 29 µM | COLO 205 21.6 µM | CAKI-1 24.7 µM | EKVX 16.9 µM | A549 19 µM | NCI-H23 17.6 µM | LOX IMVI 14.5 µM | MOLT-4 21.5 µM | OVCAR-5 16.8 µM | SK-MEL-5 18.3 µM | SW-620 19.5 µM | HL-60 21.4 µM | NCI-H522 16.6 µM | UACC-257 13.2 µM

CC(=O)Nc1ccc(S(=O)(=O)NN(C)S(=O)(=O)c2ccc(C)cc2)cc1
inactive: RPMI-8226 > 100 µM | COLO 205 > 100 µM | CAKI-1 > 100 µM | EKVX > 100 µM | A549 > 100 µM | NCI-H23 > 100 µM | MOLT-4 > 100 µM | OVCAR-5 > 100 µM | SK-MEL-5 > 100 µM | SW-620 > 100 µM | SR > 100 µM | HL-60 > 100 µM | NCI-H522 > 100 µM | UACC-257 > 100 µM

COC(=O)OCC1OC(N2C(=O)NC(=O)C(Br)C2N=[N+]=[N-])CC1OC(=O)OC (stereo not given)
inactive: RPMI-8226 > 100 µM | COLO 205 > 100 µM | CAKI-1 > 100 µM | A549 > 100 µM | NCI-H23 > 100 µM | LOX IMVI > 100 µM | OVCAR-5 > 100 µM | SK-MEL-5 > 100 µM | SW-620 > 100 µM | NCI-H522 66.4 µM | UACC-257 > 100 µM

Cc1ccc(C)c(NC(=O)CC/C(=N\NC(=O)C(N)=O)C(C)C(=O)c2ccc(O)cc2)c1 (stereo not given)
inactive: COLO 205 > 100 µM | CAKI-1 > 100 µM | EKVX > 100 µM | A549 > 100 µM | NCI-H23 > 100 µM | LOX IMVI > 100 µM | MOLT-4 > 100 µM | OVCAR-5 > 100 µM | SK-MEL-5 > 100 µM | SW-620 > 100 µM | SR > 100 µM | HL-60 > 100 µM | UACC-257 > 100 µM

O=P(O)(OCC(O)O)OCC(O)O
inactive: RPMI-8226 > 100 µM | COLO 205 > 100 µM | EKVX > 100 µM | A549 > 100 µM | NCI-H23 > 100 µM | LOX IMVI > 100 µM | MOLT-4 > 100 µM | OVCAR-5 > 100 µM | SK-MEL-5 > 100 µM | SW-620 > 100 µM | HL-60 > 100 µM | NCI-H522 > 100 µM | UACC-257 > 100 µM

COc1ccc2c(c1)[n+]([O-])c(C(=O)C/C(=N/NC(=O)C[N+](C)(C)C)C(=O)Nc1cccc(C)c1C)c(C)[n+]2[O-]
inactive: RPMI-8226 > 100 µM | COLO 205 > 100 µM | CAKI-1 > 100 µM | EKVX > 100 µM | A549 > 100 µM | NCI-H23 > 100 µM | OVCAR-5 67.1 µM | SW-620 > 100 µM | NCI-H522 > 100 µM | UACC-257 28.6 µM
